Data from patent publication US10315990B2, “Isothiocyanate compounds and isothiocyanate XPO1 protein inhibitor drugs thereof” (DRIVINGFORCE THERAPEUTICS Co., Ltd., priority 2015, dated 2019).

Legend:
IBD animal model = assay: Macroscopic pathological changes of IBD animal model (enteroclysis with TNBS); assay type: in vivo, SD rats; settings: TNBS rats; for Macroscopic pathological score: 80 mg/kg intragastrically daily, score 0-5, 10 animals
Method: Eight-week-old male SD rats (10 rats per group) were fasted for 24 hours and anaesthetized with diethyl ether. 50% ethanol and TNBS (2,4,6-trinitrobenzenesulfonic acid) were mixed to prepare a solution. In the IBD model group, a tube made of vinyl resin was inserted 5 cm from anus, and enteroclysis was performed with the TNBS solution in a dose of 100 mg/kg. The rats were hung upside down 30 seconds later after the enteroclysis to ensure no leakage of the TNBS solution. In the control group, the TNBS solution was replaced with normal saline with which enteroclysis was performed. Seven days later after the enteroclysis with the TNBS solution or normal saline, animals were sacrificed and dissected. […] Two weeks later after treated with the drugs, the animals were sacrificed and dissected, and large intestine thereof was taken out and fixed in 4% formalin solution for 30 minutes. The large intestine of the animals was cut lengthwise from the mesentery side to take photos for rectum portion and measure the weight of rectum. Based on the macroscopic observation and judgment score (Table 2-1), ulceration and bleeding states of rectum portion were scored according to the macroscopic observation scoring standard.

TNF-α = assay: Serum TNF-α level of IBD animal model (ELISA); assay type: in vivo, SD rats; settings: 80 mg/kg, three days after making the TNBS model
Source text: (§1) Inflammatory bowel disease is an autoimmune disease. […] The therapeutic effect of the representative compound for the immune system disease or inflammation can be assessed by detecting change in levels of some important cytokines such as TNF-α and IL-6 at downstream of the signal path.

IL-6 = assay: Serum IL-6 level of IBD animal model (ELISA); assay type: in vivo, SD rats; settings: 80 mg/kg, three days after making the TNBS model
Source text: as §1

XPO1 protein = biological target: T1, XPO1 protein (Homo sapiens, UniProt O14980); assay: Inhibitory activity for XPO1 protein (NES-GFP nuclear export, laser confocal microscope); assay type: cell-based; settings: NES-GFP nuclear export, cells treated for 2 hours
T1 construct: Sixteen hours later, NES-GFP plasmid was transfected with liposome; endogenous in cells
T1 sequence (O14980 whole entry, species assumed): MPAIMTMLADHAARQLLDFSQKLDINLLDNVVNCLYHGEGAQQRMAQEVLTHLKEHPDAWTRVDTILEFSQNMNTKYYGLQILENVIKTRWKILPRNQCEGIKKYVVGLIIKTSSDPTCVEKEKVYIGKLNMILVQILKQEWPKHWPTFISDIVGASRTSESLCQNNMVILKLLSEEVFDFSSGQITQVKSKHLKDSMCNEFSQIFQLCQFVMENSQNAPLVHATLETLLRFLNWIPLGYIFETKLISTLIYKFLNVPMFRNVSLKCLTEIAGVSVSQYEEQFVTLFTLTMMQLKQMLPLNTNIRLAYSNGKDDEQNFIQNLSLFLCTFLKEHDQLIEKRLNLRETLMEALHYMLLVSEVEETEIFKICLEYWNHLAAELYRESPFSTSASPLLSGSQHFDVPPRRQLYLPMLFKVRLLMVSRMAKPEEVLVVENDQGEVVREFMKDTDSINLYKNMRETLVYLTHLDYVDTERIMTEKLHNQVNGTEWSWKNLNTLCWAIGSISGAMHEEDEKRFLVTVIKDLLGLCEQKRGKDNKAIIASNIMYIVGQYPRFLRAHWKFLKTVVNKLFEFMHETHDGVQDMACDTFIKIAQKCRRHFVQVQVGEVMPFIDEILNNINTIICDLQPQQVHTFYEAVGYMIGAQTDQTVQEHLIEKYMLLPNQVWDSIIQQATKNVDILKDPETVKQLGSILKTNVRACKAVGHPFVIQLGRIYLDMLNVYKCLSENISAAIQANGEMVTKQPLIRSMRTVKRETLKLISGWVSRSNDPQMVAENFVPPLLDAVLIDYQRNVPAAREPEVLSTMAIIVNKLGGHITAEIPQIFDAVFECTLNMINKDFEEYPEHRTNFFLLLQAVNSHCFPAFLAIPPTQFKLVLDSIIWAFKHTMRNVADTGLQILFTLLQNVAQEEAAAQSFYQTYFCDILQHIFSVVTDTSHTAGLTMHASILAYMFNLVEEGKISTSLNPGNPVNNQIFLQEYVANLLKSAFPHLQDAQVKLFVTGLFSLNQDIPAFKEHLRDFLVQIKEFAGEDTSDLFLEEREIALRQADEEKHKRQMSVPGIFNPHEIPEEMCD
Source text: NES (nuclear export signal) is a nuclear export signal peptide recognized by XPO1 protein. XPO1 recognizes NES sequence peptide segment of biomacromolecule and exports the biomacromolecule out of nucleus. NES-GFP protein is obtained by co-expressing green fluorescence protein GFP and NES sequence peptide segment by using a eukaryotic expression plasmid. Inhibitory activity of the representative compound for XPO1 protein can be assessed by detecting influence of the compound on NES-GFP cell localization.
The cells were digested with trypsin, counted, and inoculated on 96-well plate in an amount of 1.5×10^4 cells per well. Sixteen hours later, NES-GFP plasmid was transfected with liposome.

HMLE-Snail cell line = assay: Formation of HMLE-Snail cell line spheroids; assay type: cell-based; settings: 10 μg/ml, treated for 24 hours; control = 100; read-out: Colony (%): cell colony number of drug-treated group/cell colony number of control group × 100%
Method: HMLE-Snail cell line is one of most classic cell models for studying tumor cell metastasis and EMT path. HMLE-Snail cell line highly expresses Snail protein, and thus one of most remarkable features thereof is that it has spherical cellular morphology (spheroid). […] The HMLE-Snail cell line used in the present invention was donated by Dr. Robert Weinberg from America Massachusetts Whitehead Institute. HMLE-Snail cells were suspended in a liquid culture medium (in which B-27 and N-2 were added, purchased from America Invitrogen Corporation) containing DMEM/F12 in a ratio of 1:1, in an amount of 1.0×10^3 cells/ml, and cultured in an ultra low attachment culture plate so as to allow spheroids to be formed. Seven days later, spheroids were collected by centrifugation, and counted. […] Docetaxel is a common clinical chemotherapy drug.

[1] = tested on: SK-OV3 (high metastasis type ovarian cancer cell line); assay: Ovarian cancer intraperitoneal metastasis animal model; assay type: in vivo, nudemice (BALB/c-nu/nu); settings: Mus musculus, SK-OV-3, ip
Method: The ovarian cancer intraperitoneal metastasis animal model is one of most classic animal models for studying anti-ovarian cancer metastasis drug. Sixty 5 to 6-week-old female nudemice with similar weight (BALB/c-nu/nu) were chosen. SK-OV3 (high metastasis type ovarian cancer cell line) stably expressing green fluorescence protein was screened, and prepared into a cell suspension of 2×10^6 cells/100 μl with serum-free PRMI1640 medium. […] Three weeks later, the cancer was detected with a small animal in vivo imaging apparatus (Xenogen, School of Medicine, Shanghai Jiaotong University) and photos thereof were taken. […] In the table, T represents the drug-treated group, and C represents the blank control group. T/C is (V/V0 of compound-treated group)/(V/V0 of blank control group) in which V represents the cancer volume of mouse on the day the detection was performed, and V0 represents the cancer volume of mouse on the day the administration begun.

`Nc1ccc(O)c(C(=O)O)c1` [Compound 5-ASA, 5-aminosalicylic acid, reference compound] was tested, and the Macroscopic pathological score (IBD animal model) was 4.0 ± 0.2, the “colon tissue bleeding and ulceration phenomena (in words)” value (IBD animal model; 80 mg/kg) was “small relief extent” and the “Serum TNF-α level, Animal-1” value (TNF-α) was 1.7 ng/mL. For the same compound, the “Serum TNF-α level, Animal-2” value (TNF-α) was 1.8 ng/mL, the “Serum TNF-α level, Animal-3” value (TNF-α) was 2.0 ng/mL and the “Serum IL-6 level, Animal-1” value (IL-6) was 2.7 ng/mL. The “Serum IL-6 level, Animal-2” value (IL-6) was 2.2 ng/mL and the “Serum IL-6 level, Animal-3” value (IL-6) was 2.3 ng/mL.

In the case of `CC(C)C[S+]([O-])/C=C/CCN=C=S` (centres unmarked) [Compound F-04, reference compound], the “Activity (μM): inhibitory activity for XPO1 protein (full inhibitory concentration)” value (“Activity (μM): inhibitory activity” below) (XPO1 protein) is reported as 10 to 15 µM and the activity at 10 µg/mL (HMLE-Snail cell line) is reported as 60 to 65%.

`[O-][S+](/C=C/CCN=C=S)c1ccc(Br)cc1` (centres unmarked) [Compound I-02] was tested, and the “Activity (μM): inhibitory activity” value (XPO1 protein) was 1 to 5 µM, the Macroscopic pathological score (IBD animal model) was 2.0 ± 0.4 and the activity at 10 µg/mL (HMLE-Snail cell line) was 30 to 35%.

With `COc1cc([S+]([O-])/C=C/CCN=C=S)cc(C(F)(F)F)c1` (centres unmarked) [Compound I-05] the “Activity (μM): inhibitory activity” value (XPO1 protein) was 0.5 to 1 µM and the activity at 10 µg/mL (HMLE-Snail cell line) was 20 to 25%.

With `NS(=O)(=O)c1cc([S+]([O-])/C=C/CCN=C=S)cc(C(F)(F)F)c1` (centres unmarked) [Compound I-07] the “Activity (μM): inhibitory activity” value (XPO1 protein) was 0.5 to 1 µM and the activity at 10 µg/mL (HMLE-Snail cell line) was 20 to 25%.

With `[O-][S+](/C=C/CCN=C=S)c1ccc(N2CCOCC2)cc1` (centres unmarked) [Compound I-09] the “Activity (μM): inhibitory activity” value (XPO1 protein) was 1 to 5 µM and the activity at 10 µg/mL (HMLE-Snail cell line) was 25 to 30%.

With `[O-][S+](/C=C/CCN=C=S)c1ccc2c(c1)CCCC2` (centres unmarked) [Compound I-10] the “Activity (μM): inhibitory activity” value (XPO1 protein) was 1 to 5 µM and the activity at 10 µg/mL (HMLE-Snail cell line) was 30 to 35%.

For `[O-][S+](/C=C/CCN=C=S)c1ccc2cc3ccccc3cc2c1` (centres unmarked) [Compound I-12], the “Activity (μM): inhibitory activity” value (XPO1 protein) was 1 to 5 µM and the activity at 10 µg/mL (HMLE-Snail cell line) was 30 to 35%.

In the case of `[O-][S+](/C=C/CCN=C=S)c1ccc2cccc3c2c1CC=C3` (centres unmarked) [Compound I-13], the “Activity (μM): inhibitory activity” value (XPO1 protein) is reported as 1 to 5 µM and the activity at 10 µg/mL (HMLE-Snail cell line) is reported as 30 to 35%.

In the case of `[O-][S+](/C=C/CCN=C=S)c1ccc2c(c1)Cc1ccccc1-2` (centres unmarked) [Compound I-14], the “Activity (μM): inhibitory activity” value (XPO1 protein) is reported as 1 to 5 µM and the activity at 10 µg/mL (HMLE-Snail cell line) is reported as 25 to 30%.

With `[O-][S+](/C=C/CCN=C=S)c1cccnc1` (centres unmarked) [Compound I-15] the “Activity (μM): inhibitory activity” value (XPO1 protein) was 1 to 5 µM and the activity at 10 µg/mL (HMLE-Snail cell line) was 35 to 40%.

With `[O-][S+](/C=C/CCN=C=S)c1cncc(C(F)(F)F)c1` (centres unmarked) [Compound I-16] the “Activity (μM): inhibitory activity” value (XPO1 protein) was 0.5 to 1 µM and the activity at 10 µg/mL (HMLE-Snail cell line) was 35 to 40%.

With `[O-][S+](/C=C/CCN=C=S)c1ccc2ncccc2c1` (centres unmarked) [Compound I-17] the “Activity (μM): inhibitory activity” value (XPO1 protein) was 0.5 to 1 µM, the activity at 10 µg/mL (HMLE-Snail cell line) was 30 to 35% and the response vs control in vivo at 80 mg/kg ([1]; 504 h, 80 mg/kg intraperitoneal injection once a day for 3 weeks, read-out: T/C (%)) was 27%. It also gave a mortality at 80 mg/kg ([1]; 720 h, 80 mg/kg, six mice per group, read-out: Mortality (within 30 days) (converted)) of 0%.

With `[O-][S+](/C=C/CCN=C=S)c1ccc2ncncc2c1` (centres unmarked) [Compound I-18] the “Activity (μM): inhibitory activity” value (XPO1 protein) was 1 to 5 µM and the activity at 10 µg/mL (HMLE-Snail cell line) was 30 to 35%.

With `O=c1ccc2cc([S+]([O-])/C=C/CCN=C=S)ccc2o1` (centres unmarked) [Compound I-19] the “Activity (μM): inhibitory activity” value (XPO1 protein) was 1 to 5 µM and the activity at 10 µg/mL (HMLE-Snail cell line) was 25 to 30%.

For `[O-][S+](/C=C/CCN=C=S)c1nc2ccccc2s1` (centres unmarked) [Compound I-20], the “Activity (μM): inhibitory activity” value (XPO1 protein) was 1 to 5 µM, the Macroscopic pathological score (IBD animal model) was 2.0 ± 0.3 and the activity at 10 µg/mL (HMLE-Snail cell line) was 30 to 35%. For the same compound, the “Serum TNF-α level, Animal-1” value (TNF-α) was 1.3 ng/mL, the “Serum TNF-α level, Animal-2” value (TNF-α) was 1.2 ng/mL and the “Serum TNF-α level, Animal-3” value (TNF-α) was 1.1 ng/mL. The “Serum IL-6 level, Animal-1” value (IL-6) was 1.0 ng/mL, the “Serum IL-6 level, Animal-2” value (IL-6) was 1.1 ng/mL and the “Serum IL-6 level, Animal-3” value (IL-6) was 1.0 ng/mL.

`[O-][S+](/C=C/CCN=C=S)c1nc2cc(C(F)(F)F)ccc2s1` (centres unmarked) [Compound I-21] was tested, and the “Activity (μM): inhibitory activity” value (XPO1 protein) was 1 to 5 µM and the activity at 10 µg/mL (HMLE-Snail cell line) was 30 to 35%.

For `[O-][S+](/C=C/CCN=C=S)c1nc2ccccc2[nH]1` (centres unmarked) [Compound I-22], the “Activity (μM): inhibitory activity” value (XPO1 protein) was 1 to 5 µM and the activity at 10 µg/mL (HMLE-Snail cell line) was 30 to 35%.

`[O-][S+](/C=C/CCN=C=S)c1nc2ccc(C(F)(F)F)cc2[nH]1` (centres unmarked) [Compound I-23] was tested, and the “Activity (μM): inhibitory activity” value (XPO1 protein) was 1 to 5 µM and the activity at 10 µg/mL (HMLE-Snail cell line) was 30 to 35%.

For `COc1ccc2nc([S+]([O-])/C=C/CCN=C=S)[nH]c2c1` (centres unmarked) [Compound I-24], the “Activity (μM): inhibitory activity” value (XPO1 protein) was 1 to 5 µM and the activity at 10 µg/mL (HMLE-Snail cell line) was 20 to 25%.

With `[O-][S+](/C=C/CCN=C=S)c1ccc(-c2ccccc2)cc1` (centres unmarked) [Compound I-26] the “Activity (μM): inhibitory activity” value (XPO1 protein) was 0.5 to 1 µM and the activity at 10 µg/mL (HMLE-Snail cell line) was 20 to 25%.

With `CC(=O)O[C@@]12CO[C@@H]1C[C@H](O)[C@@]1(C)C(=O)[C@H](O)C3=C(C)[C@@H](OC(=O)[C@H](O)[C@@H](NC(=O)OC(C)(C)C)c4ccccc4)C[C@@](O)([C@@H](OC(=O)c4ccccc4)[C@H]21)C3(C)C` [Docetaxel, docetaxel] the activity at 10 µg/mL (HMLE-Snail cell line) was 81%, the response vs control in vivo at 20 mg/kg ([1]; 504 h, 20 mg/kg intraperitoneal injection once a day for 3 weeks, read-out: T/C (%)) was 77% and the mortality at 20 mg/kg ([1]; 720 h, read-out: Mortality (within 30 days)) was 0%.

`C[S+]([O-])/C=C/CCN=C=S` (centres unmarked) [SFE, sulforaphene, reference compound] was tested, and the “Activity (μM): inhibitory activity” value (XPO1 protein) was 10 to 15 µM.
